Data on one compound can be found in patent US10624897B2, “Chlorobenzene substituted azaaryl compounds” (TAIPEI MEDICAL UNIVERSITY, priority 2015, dated 2020).

What all share (assay type): cell-based
One experiment deals with RT-112 cells. As to the kind of experiment: Cell cycle distribution by flow cytometry. The settings on record: FIG. 3A. For orientation: Flow cytometry measures light scatter and fluorescence of single cells or particles in a stream.
In another experiment the test system is LISA-2. As to the kind of experiment: MTT assay, cell viability. Conditions: LISA-2, Sarcoma, 72 hours; read-out: IC50 (μM, Mean ± SD). Here is the method:
(§1) Cells were cultured in RPMI-1640 (RT-112, KMS-11, SNU-16, HT-29, HCT-116, NCI—H520, Hep3B, PLC/PRF/5, HL-60, MOLT-4) and DMEM (HepG2, MCF-7, MDA-MB-231) with 10% FBS (v/v) and Penicillin/Streptomycin (100 U/ml). FU-DDLS-1 cell line was maintained in DMEM:F12 medium with 10% FBS. LiSa-2 cell line was maintained in IMDM/RPMI-1640 in a 4:1 ratio supplemented with 10% FBS, 2 mmol/L L-glutamine, and 0.1 mg/mL gentamicin. Human umbilical vein endothelial cells (HUVECs) were grown to confluence on 1% collagen, and maintained in 90% Medium 199 with 25 U/ml heparin, 30 μg/ml endothelial cell growth supplement (ECGS) adjusted to contain 1.5 g/L sodium bicarbonate, 10% FBS and Penicillin/Streptomycin (100 U/ml) Cultures were maintained at 37° C. in a humidified atmosphere of 5% CO2/95% air.
(§2) Cells were seeded in 96-well plates (5,000 cells/well) and incubated overnight for attachment, and were then treated with indicated agents in 10% FBS-supplemented medium for 72 hours. The medium was replaced with MTT (0.5 mg/mL) at 37° C. for 1 hours. After removal of medium, the cells were lysed with 100 μL per well dimethyl sulfoxide (DMSO), and absorbance at 550 nm was measured with microplate reader. The relative cell viability (%) was expressed as a percentage relative to a DMSO control cells.

The next experiment relates to RT-112. Description: MTT assay, cell viability. The settings on record: Homo sapiens; RT-112, Bladder, 72 hours; read-out: IC50 (μM, Mean ± SD). Here is the method:
as §1, §2

The next experiment deals with PLC/PRF/5. As to the kind of experiment: MTT assay, cell viability. The settings on record: Homo sapiens; PLC/PRF/5, Liver, 72 hours; read-out: IC50 (μM, Mean ± SD). Here is the method:
as §1, §2

The next experiment has as its system MDA-MB-231. As to the kind of experiment: MTT assay, cell viability. The settings on record: Homo sapiens; MDA-MB-231, Breast, 72 hours; read-out: IC50 (μM, Mean ± SD). Here is the method:
as §1, §2
(Tetrazolium assays rely on reduction of a dye to a coloured formazan, in cell work by metabolically active cells.)

In another experiment the test system is FUDDLS. As to the kind of experiment: MTT assay, cell viability. The settings on record: Sarcoma, 72 hours, read-out: IC50 (μM, Mean ± SD). The protocol: as §1, §2
In the next experiment the test system is KMS-11. As to the kind of experiment: MTT assay, cell viability. The settings on record: Homo sapiens; KMS-11, Myeloma, 72 hours; read-out: IC50 (μM, Mean ± SD). Here is the method: as §1, §2
The next experiment deals with HCT-116. As to the kind of experiment: MTT assay, cell viability. Conditions: Homo sapiens; HCT-116, Colorectal, 72 hours; read-out: IC50 (μM, Mean ± SD). The protocol:
as §1, §2

The subject of a further experiment is HT-29. Description: MTT assay, cell viability. The settings on record: Homo sapiens; HT-29, Colorectal, 72 hours; read-out: IC50 (μM, Mean ± SD). Here is the method:
as §1, §2

The subject of the next experiment is MCF-7. Description: MTT assay, cell viability. The settings on record: Homo sapiens, MCF7; MCF-7, Breast, 72 hours; read-out: IC50 (μM, Mean ± SD). Here is the method: as §1, §2
Another experiment relates to HepG2. As to the kind of experiment: MTT assay, cell viability. Conditions: Homo sapiens; HepG2, Liver, 72 hours; read-out: IC50 (μM, Mean ± SD). Here is the method:
as §1, §2

The test system of another experiment is Hep3B. Description: MTT assay, cell viability. The settings on record: Homo sapiens, Liver, 72 hours, read-out: IC50 (μM, Mean ± SD). Here is the method: as §1, §2

Consider `CCN1CCN(c2ccc(Nc3cc(N(C)C(=O)Nc4c(Cl)c(OC)cc(OC)c4Cl)ncn3)cc2)CC1` [BGJ-398, 3-(2,6-Dichloro-3,5-dimethoxy-phenyl)-1-{6-[4-(4-ethylpiperazin-1-yl)-phenylamino]-pyrimidin-4-yl}-1-methyl-urea], for which the “G0/G1 cell cycle arrest” value in the experiment on RT-112 cells (24 h) is recorded as “also observed”. Further, the “accumulation of the sub-G1 phase (apoptotic cell death)” value in the experiment with RT-112 cells (48 h to 72 h) was “induced pronounced apoptosis”. The IC50 – broadly, the point on the concentration scale where inhibition reaches its midpoint – was 6.13 ± 0.06 µM in the experiment on LISA-2; 1.7 ± 0.05 µM in the experiment on RT-112; 2.94 ± 0.11 µM in the experiment with PLC/PRF/5; 4.27 ± 0.83 µM in the experiment with MDA-MB-231; 1.45 ± 0.17 µM with FUDDLS; 0.2 ± 0.05 µM in the experiment with KMS-11. The IC50 with HCT-116 worked out at 3.98 ± 0.06 µM; in the experiment on HT-29, 4.77 ± 0.14 µM; with MCF-7, 5.07 ± 0.63 µM; with HepG2, 5.84 ± 0.25 µM; with Hep3B, 0.72 ± 0.12 µM.
